Tests used:
STZ-induced diabetes rat [1] = assay: STZ-induced diabetes rats: ocular protecting effect; format: in vivo, Sprague-Dawley (SD) rats; conditions: vs STZ control; single treated: metformin 500 mg/kg, YMJHT 400 mg/kg; daily 28 days
Experimental: (§1) As the laboratory animals, Sprague-Dawley (SD), Slc:SD rats (6-week-old females, SLC, Shizuoka, Japan) were used, an experiment method was briefly illustrated in FIG. 5A, and the design of experimental groups is shown in FIG. 5B.
(§2) 105 SD rats were purchased, and 21 days after STZ administration, only rats having uniform body weights ([…]) and blood sugar levels (257˜358 mg/dl) were selected. Among those, 8 rats per group were used in the experiment, and separate 8 rats were also prepared as the intact vehicle control (body weight: 200˜262 g; blood sugar level: 88˜100 mg/dl).
(§3) STZ was diluted with 50 mM citrate buffer (pH 6.0), and the resultant diluent was peritoneally administered once at a dose of 60 mg/kg/5 ml to induce diabetes, and in the intact vehicle control, instead of STZ, the same dose of citrate buffer was solely administered in the same route.

STZ-induced diabetes rat [2] = assay: STZ-induced diabetes rats: antidiabetic effect (blood sugar, pancreas); format: in vivo, Sprague-Dawley (SD) rats; conditions: vs STZ control, YMJHT 400 mg/kg
Experimental: as §1, §2, §3
(2) Antidiabetic effect: Change in blood sugar level, morphological change in pancreas tissue—changes in the number and diameter of pancreatic islets, and numerical changes in insulin and glucagon immunoreactive cells
(§4) To clarify degrees of inducing diabetes and diabetic complications, blood sugar levels was measured at 21 days after the STZ administration and 28 days after the administration of a candidate material, and then a difference between them was estimated. Also, to minimize a difference between organ weights depending on a body weight, an absolute weight was measured, and then a ratio to the body weight, that is, a relative weight, was calculated.

STZ-induced diabetes rat [3] = assay: STZ-induced diabetes rats: body weight and body weight gain; format: in vivo, Sprague-Dawley (SD) rats; conditions: vs STZ control, YMJHT 400 mg/kg
Experimental: as §1, §2, §3
(1) Change in body weight: Body weight gains during diabetes induction and administration of a candidate material for 28 days

STZ-induced diabetes rat [4] = assay: STZ-induced diabetes rats: antioxidative defense system in kidney; format: in vivo, Sprague-Dawley (SD) rats; conditions: vs STZ control; single treated: metformin 500 mg/kg, YMJHT 400 mg/kg; daily 28 days
Experimental: as §1, §2, §3
(8) Change in antioxidative defense system in kidney: lipid peroxidation in kidney (nM of malondialdehyde (MDA)/g protein), endogenous antioxidant—glutathione (GSH) content (nM/g protein), antioxidant enzyme—Changes in catalase and superoxide dismutase (SOD) activities (U/mg protein)

STZ-induced diabetes rat [5] = assay: STZ-induced diabetes rats: immune activity effect (thymus, spleen); format: in vivo, Sprague-Dawley (SD) rats; conditions: vs STZ control; single treated: metformin 500 mg/kg, YMJHT 400 mg/kg; daily 28 days
Experimental: as §1, §2, §3
(6) Immune activity effect: thymus and spleen weights and histopathological findings—changes in spleen thickness, the number of white pulps and diameter, changes in thymus lobules and cortex thicknesses
as §4

STZ-induced diabetes rat [6] = assay: STZ-induced diabetes rats: kidney protecting effect; format: in vivo, Sprague-Dawley (SD) rats; conditions: vs STZ control; single treated: metformin 500 mg/kg, YMJHT 400 mg/kg; daily 28 days
Experimental: as §1, §2, §3
(4) Kidney protecting effect: kidney weights, changes in blood BUN and creatinine, histopathological findings on kidney—numbers of degenerated renal tubules and glomeruli
as §4

STZ-induced diabetes rat [7] = assay: STZ-induced diabetes rats: antihyperlipidemic effect; format: in vivo, Sprague-Dawley (SD) rats; conditions: vs STZ control; single treated: metformin 500 mg/kg, YMJHT 400 mg/kg; daily 28 days
Experimental: as §1, §2, §3

in vivo = conditions: male, SD, rat, plasma, po, 500 mg/kg
STZ-induced diabetes rat [8] = assay: STZ-induced diabetes rats: liver protecting effect; format: in vivo, Sprague-Dawley (SD) rats; conditions: vs STZ control; single treated: metformin 500 mg/kg, YMJHT 400 mg/kg; daily 28 days
Experimental: as §1, §2, §3
(3) Liver protecting effect: changes in the liver weight, blood AST and ALT contents, histopathological findings on the liver—(Degeneration rate of the liver: ratio of degenerated liver cells per mm^2 of hepatocyte, number of liver cells: number of liver cells observed per mm^2 of hepatocyte).
as §4

[9] = before administration, single treated groups: metformin 500 mg/kg
[10] = single treated: metformin 500 mg/kg, daily 28 days

CN(C)C(=N)N=C(N)N [metformin]
Lens damage score, change (STZ-induced diabetes rat [1]): −33.33%
Number of blood vessels present in an internal limiting membrane, change (STZ-induced diabetes rat [1]): −44.55%
Observer-based scores for cataract, change (STZ-induced diabetes rat [1]): −38.89%
Quantitative image scores for cataract, change (STZ-induced diabetes rat [1]): −40.56%
Thickness of the damaged part of the lens, change (STZ-induced diabetes rat [1]): −46.34%
Thickness of the inner nuclear layer in the retina, change (STZ-induced diabetes rat [1]): 44.29%
Thickness of the plexiform layer in the retina, change (STZ-induced diabetes rat [1]): 32.03%
Total thickness of the retina, change (STZ-induced diabetes rat [1]): 33.45%
Blood sugar level at 21 days after the STZ administration, change (STZ-induced diabetes rat [2]; [9]): 1.68%
Blood sugar level at 28 days after the STZ administration, change (STZ-induced diabetes rat [2]; [10]): −27.25%
Blood sugar variation from 21 days after the STZ administration to 28 days after the administration of a candidate material, change (STZ-induced diabetes rat [2]; [10]): −59.39%
Mean diameters of the pancreatic islets, change (STZ-induced diabetes rat [2]; [10]): 97.80%
Numbers of insulin immunoreactive cells in the pancreatic islet, change (STZ-induced diabetes rat [2]; [10]): 202.99%
Numbers of pancreatic islets per unit area, change (STZ-induced diabetes rat [2]; [10]): 120.93%
Numbers of the glucagon immunoreactive cells in the pancreatic islet, change (STZ-induced diabetes rat [2]; [10]): −27.78%
Pancreas absolute weights, change (STZ-induced diabetes rat [2]; [10]): 7.95%
Relative pancreas weights with respect to the body weight, change (STZ-induced diabetes rat [2]; [10]): −7.49%
Body weight gains during the diabetes induction, change (STZ-induced diabetes rat [3]; [9]): 45.45%
Body weight gains during the 28-day administration, change (STZ-induced diabetes rat [3]; [10]): 193.31%
Catalase activity in the renal tissue, change (STZ-induced diabetes rat [4]): 48.59%
Content of the endogenous antioxidant in the renal tissue, GSH, change (STZ-induced diabetes rat [4]): 64.65%
MDA content in the kidney tissue (lipid peroxidation indicator), change (STZ-induced diabetes rat [4]): −32.56%
SOD activity in the renal tissue, change (STZ-induced diabetes rat [4]): 51.47%
Absolute weight of the spleen, change (STZ-induced diabetes rat [5]): 31.35%
Absolute weight of the thymus, change (STZ-induced diabetes rat [5]): 73.03%
Mean diameter of the white pulp, change (STZ-induced diabetes rat [5]): 101.18%
Number of white pulps per unit area (100 mm^2), change (STZ-induced diabetes rat [5]): 76.53%
Relative weight of the spleen, change (STZ-induced diabetes rat [5]): 12.17%
Relative weight of the thymus, change (STZ-induced diabetes rat [5]): 50.71%
Total thickness of the spleen, change (STZ-induced diabetes rat [5]): 36.43%
Total thickness of the thymus cortex, change (STZ-induced diabetes rat [5]): 78.00%
Total thickness of the thymus lobules, change (STZ-induced diabetes rat [5]): 198.88%
Absolute weight of the kidney, change (STZ-induced diabetes rat [6]): −21.29%
Blood BUN content, change (STZ-induced diabetes rat [6]): −31.69%
Blood creatinine content, change (STZ-induced diabetes rat [6]): −31.29%
Number of degenerated glomeruli, change (STZ-induced diabetes rat [6]): −36.94%
Number of degenerated renal tubules, change (STZ-induced diabetes rat [6]): −29.90%
Relative weight of the kidney, change (STZ-induced diabetes rat [6]): −32.41%
Blood HDL content, change (STZ-induced diabetes rat [7]): 27.12%
Blood LDL content, change (STZ-induced diabetes rat [7]): −29.08%
Total cholesterol content in blood, change (STZ-induced diabetes rat [7]): −30.57%
Triglyceride content in blood, change (STZ-induced diabetes rat [7]): −29.72%
Cmax (in vivo): 20200 ± 3420 ng/mL
Absolute weight of the liver, change (STZ-induced diabetes rat [8]): −14.38%
Blood ALT content, change (STZ-induced diabetes rat [8]): −32.72%
Blood AST content, change (STZ-induced diabetes rat [8]): −32.82%
Hepatic degeneration rate, change (STZ-induced diabetes rat [8]): −29.61%
Number of mean hepatocytes per unit area, change (STZ-induced diabetes rat [8]): 60.58%
Relative weight of the liver, change (STZ-induced diabetes rat [8]): −27.69%

From patent US10765647B2, “Composition for treating diabetes, containing extract of yukmijihwangtang” (COMPREHENSIVE AND INTEGRATIVE MEDICINE INSTITUTE, priority 2013, dated 2020)
